Results taken from patent US10093699B2, “Peptides with antimicrobial, anticancer and/or wound-healing promoting activities, pharmaceutical compositions containing the same, and use of the peptides with antimicrobial, anticancer and/or wound-healing promoting activities” (priority 2015, dated 2018).
Where a SMILES comes first, the peptide text is derived from it. [ ]: non-standard residue; d: D form. 2Nal = N[C@@H](Cc1ccc2ccccc2c1)C(=O)O

Tests used:
[1] = test system: PC9 human lung cancer cells; type: in vivo, male nude mice
Procedure: 12 male nude mice (BALB/cAnN.Cg-Foxn1nu/CrlNarl) were purchased from National Laboratory Animal Center, Taiwan.
100 μl human lung cancer cell PC9 (3×10^6 cells) in Matrigel (Corning) was injected subcutaneously into the dorsal side of 5-week-old male nude mice. Each mouse was inoculated two sites on its back (Taguchi F, Koh Y, Koizumi F, Tamura T, Saijo N, et al. (2004) Anticancer effects of ZD6474, a VEGF receptor tyrosine kinase inhibitor, in gefitinib (“Iressa”)-sensitive and resistant xenograft models. Cancer Sci 95: 984-989.). 1 week 5 days after implantation (cancer size>95 mm^3), 12 mice were allocated randomly into two group. One group was received K4R2Nal2S1 (5 mg/Kg, dissolving in 100 μl PBS buffer) by tail vein injection three times a week, the other group was injected PBS as control.
Body weight and cancer size were measured three times a week. The cancer volume was calculated by formula of width^2×length×0.52. The cancer volume below 100% of the pretreatment volume was defined as “cancer reduction” (Taguchi F, Koh Y, Koizumi F, Tamura T, Saijo N, et al. (2004) Anticancer effects of ZD6474, a VEGF receptor tyrosine kinase inhibitor, in gefitinib (“Iressa”)-sensitive and resistant xenograft models. Cancer Sci 95: 984-989.). “Cancer reduction” was confirmed when the mice were dissected.
The mice were sacrificed after treatment of 40 days, the cancers were removed, photographed, and weighed. All animal experiments were performed in accordance with the animal guidelines of the National Tsing Hua University Institutional Animal Care and approved by Animal Care Committee.
Solid cancers were fixed in 4% formaldehyde buffer. Paraffin-embedded tissues were cut to 2 μm-thickness sections, and deparaffinized in ultraclear buffer (J.T. Baker) and graded ethanol. The morphology of cancers was obtained by Hematoxylin and eosin (H&E) stained sections. In addition, the sections were immunostained with anti-cleaved-PARP (1:100) antibody (Cell Signaling, clone number: D65E10).
Tissue images were captured using light microscope (Eclipse E400, Nikon) with digital microscopy camera (AxioCam ICc 5, ZEISS), at 40×, 200× and 400× fields.
To evaluate the anticancer effect of K4R2Nal2-S1 peptide in vivo, PC9 cells were implanted subcutaneously to nude mice (see FIG. 7A) and followed by K4R2-Nal2-S1 injection via the intravenous route, at a dose of 5 mg/kg, three times weekly (FIGS. 7B and 7C).
To examine the involvement of necrosis and apoptosis in K4R2Nal2-S1 peptide mediated anticancer effect, lung tumors generated in the xenograft mouse model were excised and analyzed by Hematoxylin and eosin (H&E) staining and immunohistochemistry for cleaved PARP, a marker for cell apoptosis.

[2] = test system: Gram-positive and Gram-negative bacterium; assay: Antimicrobial activity under several salt concentrations (summary in words); type: cell-based
Procedure: Escherichia coli strain (ATCC 25922), Staphylococcus aureus subsp strain (ATCC 25923, methicillin-resistant), and Pseudomonas aeruginosa Migula strain (ATCC 27853, ampicillin-resistant) were used to test the antibacterial activity of the peptides. Bacteria were cultured in sterilized Mueller-Hinton (MH) culturing medium at 200 rpm and 37° C. for 8 hours.
The antibacterial activities were determined by the standard broth microdilution method of National Committee for Clinical Laboratory Standards with the LYM broth. The LYM broth contains 5.4 mM KCl, 5.6 mM Na2HPO4, 0.5 mM MgSO4, and 1.0 mM sodium citrate. In addition, 0.4 mg of ZnCl2, 2.0 mg of FeCl3. 6H2O, 0.1 mg of CuSO4. 5H2O, 0.1 mg of MnSO4.H2O, 0.1 mg of Na2B4O7.10H2O, 700 mg of amino acid mixtures without tryptophan (Clontech), and 20 mg of L-Tryptophan were added per liter of medium. A vitamin mixture (100×, Sigma) and glucose at final concentration of 2% were also added.
1 μl peptide solutions (ranging from 5000 μg/ml to 78 μg/ml in serial dilution) was prepared and mixed with 99 μl inoculum (5×10^5 CFU/ml) in polypropylene 96-well plate. The turbidity at OD 600 nm was measured by ELISA plate reader (Thermo Max, Molecular Devices, Sunnyvale, Calif.). The absorbance of culture medium and inoculum suspension without peptides were used as the negative and positive control, respectively. […]

HFW cells = assay: Cell live image (phase-contrast and immunofluorescence), HFW; type: cell-based, human; conditions: 12 μM, 5 minutes
Procedure: PC9 and HFW cells (˜10^5 cells) were pre-seeded in 6-cm polystyrene dishes for 24 hours. Cell nuclear is labeled by 4′,6-diamidino-2-phenylindole (DAPI) with a final concentration of 10 μg/ml. After 10 minutes of incubation, the cells were washed by PBS. FITC-K4R2Nal2S1-NH2 was added to the dishes with the final concentration of 12 μM. After incubation for 5, 10, 20 minutes or 1 hour at 37° C., the cells were washed with PBS. The images of FITC-K4R2Nal2S1-NH2 in PC9 cells and HFW cells were observed using the Inverted Fluorescent Microscope Zeiss/Observer.Z1.
To investigate the mode of actions of K4R2Nal2-S1 peptide on human cancer cell line (PC9) and human fibroblast (HFW), cells were treated with FITC-labeled K4R2-Nal2-S1. Nucleus was labeled with DAPI, and the blue signal was observed by UV exciting light. The fluorescence distribution of FITC-labeled K4R2-Nal2-S1 peptide on cell membrane was visualized by the inverted fluorescent microscope.

caspase 3 in HFW cells = assay: Western blot for activated caspase 3, HFW; type: cell-based, human
[3] = 5 mg/kg i.v., three times weekly, harvested 40 days after injection

## CC(=O)N[C@@H](CCCCN)C(=O)N[C@@H](CCCCN)C(=O)N[C@@H](CCCCN)C(=O)N[C@@H](CCCCN)C(=O)N[C@@H](CCCNC(=N)N)C(=O)N[C@@H](CCCNC(=N)N)C(=O)N[C@@H](Cc1ccc2ccccc2c1)C(=O)N[C@@H](Cc1ccc2ccccc2c1)C(=O)N[C@@H](CCCCN)C(=O)N[C@@H](CCCCN)C(=O)N[C@@H](Cc1c[nH]c2ccccc12)C(=O)N[C@@H](CCCNC(=N)N)C(=O)N[C@@H](CCCCN)C(=O)N[C@@H](Cc1c[nH]c2ccccc12)C(=O)N[C@@H](CC(C)C)C(=O)N[C@@H](C)C(=O)N[C@@H](CCCCN)C(=O)N[C@@H](CCCCN)C(N)=O [K4R2-Nal2-S1, Ac-KKKKRR-Nal-Nal-KKWRKWLAKK-NH2] (Ac-KKKKRR[2Nal][2Nal]KKWRKWLAKK-NH2)
[1]; 5 mg/kg i.v., three times weekly
  tumor growth: significant inhibition
[1]; [3]
  volume of tumors harvested: decreased
  weight of tumors harvested: decreased
[1]; 46th day after implantation, 6 mice×2 side implantation, 12 in the PBS group
  number of exposed tumors: 7
[1]; excised xenograft tumors
  necrosis in tumors (H&E staining): large scale of necrosis regions
[1]; excised xenograft tumors, next to the necrosis regions
  cleaved PARP expression (immunohistochemistry): increased expression of cleaved PARP
[2]; LYM broth condition
  effectiveness against bacterium: very effective
[2]; addition of 100 or 200 mM NaCl
  antimicrobial activities in high-salt conditions: promising activities
HFW cells
  cellular swelling (phase-contrast microscopy): not in HFW cells
Caspase 3 in HFW cells
  caspase 3 activation (immunoblotting): not in HFW cells
